Measured values from patent US20080070958A1, “Therapeutic Agent for Keratoconjunctival Disorder” (priority 2004, published 2008).

Test system: corneal damage in corneal disorder models
Experiment: Test for therapeutic effect on corneal damage (rat corneal disorder model, exorbital lacrimal gland removal, fluorescein staining score)
Format: in vivo, male SD rats
Settings: for Improvement ratio (%): {(control)-(compound)}/{(control)-(normal eye)}x100; for Mean value of total scores: fluorescein staining score of cornea (upper, middle, lower parts, each 0-3), mean of 8 eyes
Method: Test for Therapeutic Effect on Corneal Damage Using male SD rats, in accordance with the method of Fujihara et al. (Invest. Ophthalmol. Vis. Sci. 42 (1): 96-100 (2001)), corneal disorder models were produced. After the production of the corneal disorder models, the improvement ratio of a corneal damage was evaluated according to the method of Murakami et al. (Journal of the eye 21 (1): 87-90 (2004)). Male SD rats were systemically anesthetized by an administration of Nembutal. Subsequently the exorbital lacrimal gland of each rat was removed and a corneal damage was induced over a period of 2 months. Then, E-4-[4-(5-methyl-2-phenyl-4-oxazolylmethoxy) benzyloxyimino]-4-phenylbutyric acid (Compound A), Z-2-[4-(5-methyl-2-phenyl-4-oxazolylmethoxy) benzyloxyimino]-2-(4-phenoxyphenyl) acetic acid (Compound B), 2-[2-propyl-3-[3-[2-ethyl-4-(4-fluorophenyl)-5-hydroxyphenoxy]propoxy]phenoxy]sodium benzoate (Compound C) or 2(S)-methoxy-3-[4-[3-(4-phenoxyphenoxy)propoxy]phenyl] propionic acid (Compound D) was administered to the rats as follows. A physiological saline solution of Compound A (0.006%) was instilled into both eyes 6 times a day for 7 days (one group consisting of 4 animals, 8 eyes). A physiological saline solution of Compound B (0.006%) was instilled into both eyes 6 times a day for 7 days (one group consisting of 4 animals, 8 eyes). A physiological saline solution of Compound C (0.006%) was instilled into both eyes 6 times a day for 7 days (one group consisting of 4 animals, 8 eyes). A phosphate-buffered saline (PBS) solution of Compound D (0.002%) was instilled into both eyes 6 times a day for 7 days (one group consisting of 4 animals, 8 eyes). In a control group, physiological saline or PBS was instilled into both eyes 6 times a day for 7 days (one group consisting of 4 animals, 8 eyes). Seven days after the start of instillation, the damaged parts of the cornea were stained with fluorescein. For each of the upper, middle and lower parts of the cornea, the degree of fluorescein staining was evaluated by scoring according to the criteria shown below and the mean value of the total scores for each of the above-mentioned parts was calculated. • 0: No punctate staining • 1: Scattered staining (punctate staining being separated) • 2: Moderate staining (a part of punctuate staining being adjacent) • 3: Heavy staining (punctate staining being barely separated) (Results) By taking the mean value of the total scores for the control group (physiological saline or PBS) as a standard (improvement ratio: 0%), the calculation was carried out. Each of the improvement ratios for the Compound A administration group, the Compound B administration group and the Compound C administration group is shown in Table 1 and the improvement ratio for the Compound D administration group is shown in Table 2. The mean value of the scores is a mean of those of 8 cases, respectively. The improvement ratio was calculated according to the following equation. Improvement ratio (%)={(control)−(the present compound)}/damage degree×100 Damage degree={(control)−(normal eye)}

[1] = 0.006% in physiological saline instilled into both eyes 6 times a day for 7 days, vs physiological saline control (0%)
[2] = 0.006% in physiological saline instilled into both eyes 6 times a day for 7 days, normal eye 3.0, saline control 6.1

Structure (SMILES): CO[C@@H](Cc1ccc(OCCCOc2ccc(Oc3ccccc3)cc2)cc1)C(=O)O [Compound D, 2(S)-methoxy-3-[4-[3-(4-phenoxyphenoxy)propoxy]phenyl] propionic acid]
- Improvement ratio (%) (0.002% in PBS instilled into both eyes 6 times a day for 7 days, vs PBS control (0%)): 12.0%
- Mean value of total scores (0.002% in PBS instilled into both eyes 6 times a day for 7 days, normal eye 3.1, PBS control 5.6): 5.3

Structure (SMILES): CCCc1c(OCCCOc2cc(O)c(-c3ccc(F)cc3)cc2CC)cccc1Oc1ccccc1C(=O)[O-].[Na+] [Compound C, 2-[2-propyl-3-[3-[2-ethyl-4-(4-fluorophenyl)-5-hydroxyphenoxy]propoxy]phenoxy]sodium benzoate]
- Improvement ratio (%) [1]: 38.7%
- Mean value of total scores [2]: 4.9

Structure (SMILES): Cc1oc(-c2ccccc2)nc1COc1ccc(CO/N=C(\CCC(=O)O)c2ccccc2)cc1 [Compound A, E-4-[4-(5-methyl-2-phenyl-4-oxazolylmethoxy)benzyloxyimino]-4-phenylbutyric acid]
- Improvement ratio (%) [1]: 32.3%
- Mean value of total scores [2]: 5.1

Structure (SMILES): Cc1oc(-c2ccccc2)nc1COc1ccc(CO/N=C(\C(=O)O)c2ccc(Oc3ccccc3)cc2)cc1 [Compound B, Z-2-[4-(5-methyl-2-phenyl-4-oxazolylmethoxy)benzyloxyimino]-2-(4-phenoxyphenyl) acetic acid]
- Improvement ratio (%) [1]: 32.3%
- Mean value of total scores [2]: 5.1
